# Reference: patent US5856115A, “Assay for identification therapeutic agents” (priority 1994, dated 1999)
# Columns and labels:
# [1] = test system: Human glomerular mesangial cells stimulated with IL-1; test: Invention assay: HPLC of lipids (PA, DAG) from mesangial cells stimulated with IL-1; format: cell-based
# Experimental: The compounds of Formula I are shown to modulate the effects of primary stimuli which elevate levels of the relevant subspecies of PA and DAG using the assay system of the invention. In general for the assay, the cells to be tested are first incubated with the primary stimulating agent for various time periods and fixed in ice-cold methanol. The lipids are extracted using, for example, chloroform:methanol 2:1 (v/v), and the extracts are then subjected to HPLC as described by Bursten and Harris, Biochemistry (1991). In this method, a Rainin mu-Porasil column is used with a 3:4 hexane:propanol organic carrier and a 1-10% water gradient during the first 10 minutes of separation. Detection of the peaks in the elution pattern is by absorption in the range of ultraviolet which detects isolated double bonds. Thus, the relevant peaks of unsaturated PA and DAG are shown in the elution pattern. It is important to note that the assay method permits discrimination between various forms of PA and DAG so that those relevant to the pathway affected by the compounds of Formula I can be measured directly. Confirmation of the nature of the acyl substituents of these components is accomplished using fast-atom bombardment mass spectroscopy. Thus, the relevant unsaturated (non-arachidonic) PA and DAG subspecies may be detected. The time periods employed are 5-60 seconds after stimulation with the primary stimulus, such as a cytokine. This technique permits assessment of the levels of various lipid components as a function of time.
# To test the effect of the compounds of the invention, the candidate compound is included in the initial incubation at various concentrations. Fixing, extraction and HPLC are conducted as above. The effect of the candidate compound is then reflected in a lowering of the relevant PA and DAG levels as compared to the cells without candidate in the control as illustrated hereinbelow.
# (§1) Human glomerular mesangial cells were incubated with IL-1 for various time periods of 5-60 seconds and the cells were fixed in ice-cold methanol, and the lipids extracted using chloroform:methanol 2:1 (v/v). It is very important that the fixing/extraction process be conducted quickly so that the decomposition of unstable intermediates is halted.
# (§2) The extracts were subjected to HPLC on a Rainin mu-Porasil column with a 3:4 hexane:propanol organic carrier and a 1-10% water gradient during the first 10 minutes of separation. The relative concentration of each lipid species is determined using absorption at 206 nm (A206), which follows unsaturated acyl content of lipid species. […] The absolute mass of each lipid species is determined by isolation of the lipid using a fraction collector, repurification on the HPLC column. Determination of phospholipid phosphorus is as nmoles/mg cellular protein. Protein concentration is determined using the Bradford technique.
# After contacting HMC with 10^-11 M interleukin-1, a marked redistribution of phospholipids and metabolites is apparent within 5 seconds (FIG. 2), including a significant increase in PA and DAG. FIGS. 3 and 4 show the HPLC after stimulation with IL-1 for 15 seconds and 60 seconds, respectively. PA has been converted into DAG by action of phosphatidate phosphohydrolase at 15 seconds; but the PA peak reappears after 60 seconds.
# The HMC were also reacted with 10^-11 M IL-1 in the presence of various concentrations of pentoxifylline. […] A large peak representing pentoxifylline is present.
# [2] = test system: lyso-PA acyl transferase (LPAAT); test: Inhibition of LPAAT shown by the invention assay; format: cell-based, human
# Experimental: (§3) This example also illustrates the method of the invention.
# as §1, §2
# (§4) Thus, the lyso PA that accumulates contains high levels of unsaturated fatty acids. Pentoxifylline in a dose range greater than 500 μM results in inhibition both of phosphatidate phosphohydrolase and of lyso PA acyl transferase.
# [3] = test system: phosphatidic acid phosphohydrolase (PAPH); test: Inhibition of PAPH shown by the invention assay; format: cell-based, human
# Experimental: as §3, §1, §2, §4
# [4] = test system: patients undergoing allogeneic bone marrow transplant; test: Preliminary study in allogeneic bone marrow transplant patients; format: in vivo, human; details: first 30 days post-transplant
# Experimental: A preliminary study was conducted on patients undergoing allogeneic bone marrow transplant for multiple myeloma, for lymphoid malignancies, or for advanced stage CML or AML. Prednisone is often administered as an immunosuppressant in all experimental groups. In the study, these patients received the drugs for a minimum of 3 days to a maximum of 7 days prior to starting their preparative regimen while in the outpatient department according to the following regimen:
# PTX: 600 mg p.o. qid at 9 am, 1 pm, 5 pm and 9 pm;
# CIPRO: 500 mg p.o.b.i.d.; and
# PD: 0.5 mg/kg b.i.d. (total 1 mg/kg/day changed to methylprednisolone at an equivalent dose starting on day-1).
# For the duration of therapy, the patients are continued on the study drugs as follows:
# PTX: until day +20 post-transplant then tapered 600 mg/day until off;
# CIPRO: until day 30 post-transplant or day of discharge if sooner than day 30; and
# PD: tapered starting on day 0 over 14 days until off.
# All patients in these studies received PD and cyclosporin as GVHD prophylaxis.
# [5] = test system: recipients of matched allogeneic donor marrow; test: Matched allogeneic donor trial; format: in vivo, human
# Source text: (§5) They are given steroids to reduce inflammation. […] In this group of patients, GVHD approaches 90%.
# Again, engraftment was improved, toxicity diminished and survival improved as compared either to standard treatment or to treatment with GM-CSF.
# [6] = test system: recipients of marrow from unrelated donors; test: Unrelated donor trial; format: in vivo, human
# Source text: as §5
# Again, the general results were improved as compared to either standard therapy or GM-CSF.
# [7] = test system: NIH3T3 cell line (D5C3) transformed with temperature-sensitive v-abl; test: Blocking transformed phenotype of D5C3 cells; format: cell-based, murine
# Experimental: An NIH3T3 cell line ([MUT]) provides target cells which were transformed by an activated oncogene. The cells were transformed with a temperature-sensitive v-abl mutant gene. This mutant gene encodes a temperature-sensitive v-abl protein that produces a non-oncogenic product at a non-permissive temperature due to a lack of tyrosine phosphorylation. The cells were incubated at the permissive temperature (33° C.) for 5 days after passage with and without pentoxifylline (1 mM).
# [8] = test system: NIH3T3 murine fibroblast cells transformed with a mutated K-ras; test: Growth and soft agar colonies of K-ras transformed NIH3T3 cells in vitro; format: cell-based; details: concentrations at or greater than 0.5 mM
# Experimental: Additionally, NIH3T3 murine fibroblast cells transformed with a mutated K-ras (codon 12 Gly-Val) were tested in vitro and in nude mice.
# [9] = test system: SV40 T-antigen-transformed human kidney mesangial cells; test: Tritiated thymidine uptake of transformed mesangial cells with rhIL-1 or TNFα; format: cell-based
# Experimental: SV40 T-antigen-transformed human kidney mesangial cells were cultured under standard conditions with rhIL-1 or with TNFα with and without pentoxifylline (PTX). Transformed mesangial cells grow independently of added growth factors, but IL-1 and TNFα are the normal proliferative signals for mesangial cells. As was shown in Example 1, when IL-1 is added to kidney mesangial cells, within 30 seconds LPAAT and PAPH are activated; the effect of both of these enzymes is inhibited by pentoxifylline at 1 mM. In this experiment, the growth of the treated cells was measured using tritiated thymidine uptake.
# [10] = test system: human leukemic cell line (Mo7e); test: GM-CSF stimulated colony formation of Mo7e cells; format: cell-based; details: semisolid medium, colonies counted after 10 days
# Experimental: The human leukemic cell line (Mo7e) is dependent on added granulocyte-macrophage colony-stimulating factor (GM-CSF) for growth. Mo7e cells were cultured in semisolid medium with and without pentoxifylline (PTX) and rhGM-CSF. Colonies were counted 10 days after culture initiation under an inverted microscope. […] PTX thus prevents the up-regulation of activation-associated genes which inhibit proliferation.
# [11] = test system: TNFα transcripts in U937 cells; test: Northern blot of TNFα transcripts in LPS-induced U937 cells; format: cell-based; details: 1 mM PTX, LPS three hours
# [12] = test system: IL-6 transcripts in bone marrow stromal cells; test: Northern blot of IL-6 transcripts in bone marrow stromal cells; format: cell-based; details: three-hour exposure, increasing concentrations
# [13] = test system: Steel factor transcripts in marrow stromal cell lines; test: Northern blot of Steel factor transcripts in marrow stromal cell lines; format: cell-based; details: three-hour incubation, passaged or cloned (CDCL) lines
# CD3-positive lymphocytes = test: Proliferation and transcripts of anti-CD3 stimulated lymphocytes; format: cell-based
# Experimental: In these experiments, freshly isolated, CD2-positive cells were stimulated by a solid-phase monoclonal antibody to acquire a CD3 phenotype, and then PTX was added. […] The block in proliferation could not be overcome by addition of either tumor necrosis factor (FIGS. 20 and 21) or IL-1 (FIG. 21). […] The cytokines and PTX were added at culture inception and the cells were harvested after 5 days.
# [14] = test system: IL-8 mRNA in U937 and THP1; test: Northern blot of IL-8 mRNA in monocytic cell lines induced by lipopolysaccharide or GM-CSF; format: cell-based
# Experimental: The murine fibrosarcoma cell line, L929, was also tested as an indicator for assays of TNF cytotoxicity. Cell growth was assayed by crystal violet staining using optical density as a measure of growth. […] Finally, two monocytic cell lines, U937 and THP1, were used to test the effect of pentoxifylline on the […] of the cytokine IL-8. The cell lines in culture were induced to upregulate IL-8 production by lipopolysaccharide or GM-CSF.
# T cell proliferation = details: Singer et al., cited from earlier work
# [15] = day 0-28, median (mean ± standard deviation)
# [16] = days 0-28, median (mean ± standard deviation)
# [17] = median (mean ± standard deviation)
molecule,measurement,setting,value
Cc1nc2sccn2c(=O)c1CCN1CCC(=C(c2ccccc2)c2ccc(F)cc2)CC1 [R 50922],HPLC pattern (reappearance of PA after 60 seconds),[1]; IL-1 stimulation,does not alter
C[C@@H](O)CCCCn1c(=O)c2c(ncn2C)n(C)c1=O [CT1501 R],block of lyso-PA AT,[2],blocks
same,block of Ptd Phydr,[3],blocks
GM-CSF: granulocyte-macrophage colony-stimulating factor,platelet transfusion requirements,[4],87±69 units of platelets
same,red blood cell requirements,[4],24.7±24 units of RBCs
same,Day 100 Survival,[5],69%
same,Max Creat,[5]; [15],1.5 (1.8 ± 1.4) mg/dL
same,Units platelets transfused,[5]; [15],74.0 (87 ± 74) units
same,Bili ≥5.0 mg/dL (patients),[5]; days 0-28,44%
same,Creat ≥2.0 mg/dL (patients),[5]; days 0-28,22%
same,Infection 0-28 (patients with positive bacterial blood cultures),[5]; days 0-28,14%
same,Max Bili,[5]; [16],5.0 (8 ± 10) mg/dL
same,ANC ≤100 (days below 100 cells/uL),[5]; [17],5.0 (6 ± 4) days
same,ANC ≥100 (day on which ANC ≥100 cells/uL on two consecutive days),[5]; [17],9.0 (8 ± 6) day
same,"ANC ≥1,000 (day on which ANC ≥1,000 cells/uL on two consecutive days)",[5]; [17],14.0 (16 ± 9) day
same,Day discharge,[5]; [17],24.0 (26 ± 13) day
same,Last RBC day (first day RBC count ≥30% for 7 consecutive days untransfused),[5]; [17],59.0 (63 ± 39) day
same,Last plt day,[5]; [17],23.0 (17 ± 11) day
same,Max Creat,[6]; [15],1.1 (1.4 ± 1.2) mg/dL
same,Units platelets transfused,[6]; [15],92.0 (90 ± 42) units
same,Bili ≥5.0 mg/dL (patients),[6]; days 0-28,46%
same,Creat ≥2.0 mg/dL (patients),[6]; days 0-28,17%
same,Infection 0-28,[6]; days 0-28,7%
same,Max Bili,[6]; [16],5.5 (7 ± 7) mg/dL
same,ANC ≤100 (days below 100 cells/uL),[6]; [17],12 (12 ± 7) days
same,ANC ≥100,[6]; [17],18.5 (18 ± 6) day
same,ANC ≥500,[6]; [17],22.5 (23 ± 4) day
same,"ANC ≥1,000",[6]; [17],26.0 (26 ± 5) day
same,Day initial discharge,[6]; [17],37.0 (37 ± 14) day
same,Last plt day,[6]; [17],24.5 (26 ± 6) day
O=C(O)c1cn(C2CC2)c2cc(N3CCNCC3)c(F)cc2c1=O [Ciprofloxacin],inhibition of the transformed phenotype,"[7]; ciprofloxacin 50 μg/ml, pentoxifylline 1 mM",significant effect
CC(=O)CCCCn1c(=O)c2c(ncn2C)n(C)c1=O [Pentoxifylline],elevation of PA and DAG by IL-1,"[1]; 1 mM, all time points (15-60 seconds)",abolishes
same,"cyclical formation of PA, and conversion of PA to DAG","[1]; 10^-11 M IL-1, 100 μM pentoxifylline, 15- and 60-second points",no change
same,conversion of PA to DAG,"[1]; 10^-11 M IL-1, 500 μM pentoxifylline, 15 second time point",slight attenuation
same,"elevation in levels of unsaturated, non-arachidonic PA and of the DAG derived from it","[1]; IL-1 stimulation, concentrations greater than 500 μM",obviate
same,LPAAT activated by IL-1,[2]; 1 mM,inhibited
same,inhibition of lyso PA acyl transferase,[2]; dose range greater than 500 μM,inhibition
same,inhibitory effect on LPAAT,[2]; relative to 0.5 mM,evident only at higher concentrations
same,PAPH activated by IL-1,[3]; 1 mM,inhibited
same,inhibition of phosphatidate phosphohydrolase,[3]; dose range greater than 500 μM,inhibition
same,appearance of cells,"[7]; 1 mM, 33° C., 5 days","predominantly non-transformed, fibroblastic appearance"
same,growth,[8]; in vitro,inhibition of growth
same,anchorage-independent growth,[8]; soft agar,suppression
same,growth stimulated by IL-1,[9]; FIG. 13A,arrested growth
same,proliferative effect of TNF,[9]; FIG. 13B,enhances
same,GM-CSF-stimulated growth of colonies,[10],enhanced
same,TNF RNA obtained in response to LPS stimulation,[11],undetectable level
same,production of IL-6 transcripts,[12],increased production
same,levels of Steel factor transcripts,[13],increases
same,thymidine uptake,"CD3-positive lymphocytes; CD2-positive T-cells, monoclonal antibody 64.1, 5 days, FIG. 21",diminished
same,TNF transcripts,"CD3-positive lymphocytes; Northern blot, FIG. 19A",suppression
same,IL-2 receptor transcripts,"CD3-positive lymphocytes; Northern blot, FIG. 19C",suppression
same,synthesis of IL-8 (mRNA),[14],did not inhibit
same,"expression of cell surface antigens (HLA-DR, CD71, CD25, CD69)",T cell proliferation; MLR-stimulated lymphocytes,decreased
same,blocking a proliferative response,T cell proliferation; PTX added after triggering lymphocytes in a mixed lymphocyte culture,still effective
